Tested on: B/Hong-Kong/36/05, mutant strain, resistant to zanamivir and oseltamivir
Format: cell-based, influenza B

`CC(=O)N[C@H]1[C@H]([C@H](O)[C@H](O)CO)OC(C(=O)O)=C[C@@H]1N=C(N)N` [Zanamivir, zanamivir] showed an IC50 of 210000 nM.
